Series [1] is described as follows: refractive index (Na D-line) (dimensionless). Conditions: 293.15 K; 101.33 kPa; Liquid; Standard Abbe refractometry.
For series [2] the following is noted: 101.33 kPa, Liquid, Vibrating tube method.

The structures appear in SMILES notation. ± gives the expanded uncertainty stated by the source.

What is called refractive index is a measure of how strongly the sample bends light. As usually defined, the mass density is the mass of a sample divided by its volume. On to `Cc1ccccc1` [toluene], for which the refractive index in series [1] came out at 1.493 ± 0.0005. Moreover, the mass density in series [2] (293.15 K) was 866.89 ± 0.13 kg/m3; in series [2] (298.15 K), 862.24 ± 0.13 kg/m3; in series [2] (303.15 K), 857.58 ± 0.13 kg/m3; in series [2] (313.15 K), 848.2 ± 0.13 kg/m3; in series [2] (323.15 K) it was 838.76 ± 0.13 kg/m3; in series [2] (333.15 K), 829.22 ± 0.14 kg/m3.

In the case of `CCCCN(CCCC)CCCC` [tributylamine], the refractive index in series [1] was found to be 1.4259 ± 0.0005. Also, the mass density in series [2] (293.15 K) amounted to 776.91 ± 0.24 kg/m3; in series [2] (298.15 K) it was 773.18 ± 0.24 kg/m3; in series [2] (303.15 K) it was 769.45 ± 0.24 kg/m3; in series [2] (313.15 K), 761.97 ± 0.24 kg/m3; in series [2] (323.15 K), 754.45 ± 0.24 kg/m3; in series [2] (333.15 K), 746.88 ± 0.24 kg/m3.

In the case of `Cc1ccccc1C` [1,2-dimethylbenzene], in series [1], the refractive index is listed as 1.5015 ± 0.0005. The mass density in series [2] (293.15 K) is on record as 879.79 ± 0.23 kg/m3; in series [2] (298.15 K), 875.58 ± 0.23 kg/m3; in series [2] (303.15 K) it was 871.37 ± 0.24 kg/m3; in series [2] (313.15 K), 862.78 ± 0.24 kg/m3; in series [2] (323.15 K) it was 854.02 ± 0.24 kg/m3; in series [2] (333.15 K) it was 845.2 ± 0.24 kg/m3.

On to `Cc1cccc(C)c1` [1,3-dimethylbenzene], for which the refractive index in series [1] came to 1.4936 ± 0.0005. For the same compound, the mass density in series [2] (293.15 K) stood at 864.18 ± 0.24 kg/m3; in series [2] (298.15 K) it was 859.88 ± 0.24 kg/m3; in series [2] (303.15 K), 855.56 ± 0.24 kg/m3; in series [2] (313.15 K), 846.85 ± 0.24 kg/m3; in series [2] (323.15 K), 837.92 ± 0.24 kg/m3; in series [2] (333.15 K) it was 829.01 ± 0.24 kg/m3.

As to `O=[N+]([O-])c1ccccc1` [nitrobenzene], the refractive index in series [1] came to 1.549 ± 0.0005. The mass density in series [2] (293.15 K) was 1203.13 ± 0.4 kg/m3; in series [2] (298.15 K) it was 1198.17 ± 0.39 kg/m3; in series [2] (303.15 K), 1193.21 ± 0.39 kg/m3; in series [2] (313.15 K), 1183.3 ± 0.38 kg/m3; in series [2] (323.15 K), 1173.38 ± 0.37 kg/m3; in series [2] (333.15 K) it was 1163.45 ± 0.36 kg/m3.

On to `CCc1ccccc1` [ethylbenzene], for which the refractive index in series [1] is recorded as 1.4922 ± 0.0005. The mass density came out at 866.99 ± 0.24 kg/m3 in series [2] (293.15 K); 862.59 ± 0.24 kg/m3 in series [2] (298.15 K); 858.18 ± 0.24 kg/m3 in series [2] (303.15 K); 849.33 ± 0.24 kg/m3 in series [2] (313.15 K); 840.42 ± 0.24 kg/m3 in series [2] (323.15 K); 831.42 ± 0.24 kg/m3 in series [2] (333.15 K).

For `Cc1ccc(C)cc1` [1,4-dimethylbenzene], in series [1], the refractive index is 1.4922 ± 0.0005. Moreover, the mass density in series [2] (293.15 K) was 861.02 ± 0.24 kg/m3; in series [2] (298.15 K) it was 856.68 ± 0.24 kg/m3; in series [2] (303.15 K) it was 852.33 ± 0.24 kg/m3; in series [2] (313.15 K), 843.59 ± 0.24 kg/m3; in series [2] (323.15 K), 834.81 ± 0.24 kg/m3; in series [2] (333.15 K) it was 825.96 ± 0.24 kg/m3.
